Assay results reported in US8415469B2, “Compounds and methods for kinase modulation, and indications therefor” (Plexxikon Inc., priority 2005, dated 2013).

Legend:
Type in all cases: biochemical
[1] = target: T1, Abl (Homo sapiens, UniProt P00519); experiment: AlphaScreen kinase assay, Abl; conditions: read-out: activity toward kinase Abl, IC50
T1 construct: P1121. pET-SPEC BI-PTP Abl G227-V515-X; His6 (N); made in house; host or cells: E. coli (PTP1B co-expressed)
T1 sequence (P00519 with tags, fused parts or gaps): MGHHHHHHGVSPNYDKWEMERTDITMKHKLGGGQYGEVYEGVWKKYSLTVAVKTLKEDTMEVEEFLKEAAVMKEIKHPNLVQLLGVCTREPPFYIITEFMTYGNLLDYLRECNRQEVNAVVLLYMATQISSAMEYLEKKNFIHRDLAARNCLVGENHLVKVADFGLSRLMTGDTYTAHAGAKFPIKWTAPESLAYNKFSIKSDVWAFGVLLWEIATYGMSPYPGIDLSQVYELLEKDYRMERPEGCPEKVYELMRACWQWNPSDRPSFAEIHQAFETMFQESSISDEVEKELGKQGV
Outline: (§1)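 Eight concentrations per compound (1:3 serial dilution of 20 mM DMSO stock) were tested. Read-out: AlphaScreen signal from phospho-antibody acceptor and streptavidin donor beads bound to biotinylated peptide substrate, reduced on kinase inhibition.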

[2] = target: T2, Kdr (Homo sapiens, UniProt P35968); experiment: Z'-Lyte FRET kinase assay (Invitrogen), Kdr; conditions: read-out: IC50, activity toward kinase Kdr
T2 construct: purchased Invitrogen (assay run by Invitrogen)

[3] = target: T3, Stk6 (Homo sapiens, UniProt O14965); experiment: Z'-Lyte FRET kinase assay (Invitrogen), Stk6; conditions: read-out: IC50, activity toward kinase Stk6
T3 construct: purchased Invitrogen (Carlsbad, Calif.), screening service
T3 sequence (O14965 1-403): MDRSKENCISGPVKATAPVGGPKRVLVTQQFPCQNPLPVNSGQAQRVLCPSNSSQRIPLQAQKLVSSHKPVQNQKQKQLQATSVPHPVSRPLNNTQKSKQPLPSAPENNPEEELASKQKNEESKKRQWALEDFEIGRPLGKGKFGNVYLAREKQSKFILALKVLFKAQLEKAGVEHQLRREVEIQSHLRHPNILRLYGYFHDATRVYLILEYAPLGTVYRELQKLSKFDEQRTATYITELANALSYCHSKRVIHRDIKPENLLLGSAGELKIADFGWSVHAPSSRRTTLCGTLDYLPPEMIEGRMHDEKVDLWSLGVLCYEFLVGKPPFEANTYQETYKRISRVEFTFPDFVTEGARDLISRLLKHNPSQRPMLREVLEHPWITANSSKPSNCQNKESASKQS

[4] = target: Gsk3β (Homo sapiens, UniProt P49841); experiment: AlphaScreen kinase assay, Gsk3β; conditions: read-out: IC50, activity toward kinase Gsk3β
Chain of Gsk3β (P49841 whole entry): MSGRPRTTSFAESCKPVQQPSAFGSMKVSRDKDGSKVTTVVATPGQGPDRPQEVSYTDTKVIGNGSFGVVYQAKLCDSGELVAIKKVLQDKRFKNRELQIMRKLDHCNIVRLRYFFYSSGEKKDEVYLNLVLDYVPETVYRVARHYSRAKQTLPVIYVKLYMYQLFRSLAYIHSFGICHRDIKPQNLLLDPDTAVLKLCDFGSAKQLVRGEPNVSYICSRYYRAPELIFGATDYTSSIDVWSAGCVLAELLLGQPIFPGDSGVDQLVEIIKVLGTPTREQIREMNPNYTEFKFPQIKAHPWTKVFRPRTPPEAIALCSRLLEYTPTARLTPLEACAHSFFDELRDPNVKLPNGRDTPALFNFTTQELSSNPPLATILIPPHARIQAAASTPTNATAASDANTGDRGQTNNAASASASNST
Text: AlphaScreen assay was used to screen additional kinases. The assay is similarly dependent on the phosphorylation of a peptide substrate. In this assay, an antibody that recognizes phosphorylated substrate is bound to an acceptor bead. The peptide substrate is attached to biotin, which binds to a donor head that contains streptavidin. Thus phosphorylated substrate is bound by antibody and streptavidin, bringing the donor and acceptor heads into close proximity when kinase is not inhibited. The donor produces singlet oxygen which results in emission from the acceptor when they are in close proximity. Conversely, when kinase is inhibited, the donor and acceptor beads are not associated and the emission from the acceptor is reduced.
AlphaScreen assays were done using compounds dissolved in DMSO to a concentration of 20 mM. The compounds were diluted accordingly to the desired final concentrations in each sample well, using 1:3 serial dilution for a total of 8 concentration points.

[5] = target: T4, B-Raf (Homo sapiens, UniProt P15056); experiment: AlphaScreen kinase assay, B-Raf; conditions: read-out: IC50, activity toward kinase B-Raf
T4 construct: purchased Upstate Biotechnology
T4 sequence (P15056 whole entry): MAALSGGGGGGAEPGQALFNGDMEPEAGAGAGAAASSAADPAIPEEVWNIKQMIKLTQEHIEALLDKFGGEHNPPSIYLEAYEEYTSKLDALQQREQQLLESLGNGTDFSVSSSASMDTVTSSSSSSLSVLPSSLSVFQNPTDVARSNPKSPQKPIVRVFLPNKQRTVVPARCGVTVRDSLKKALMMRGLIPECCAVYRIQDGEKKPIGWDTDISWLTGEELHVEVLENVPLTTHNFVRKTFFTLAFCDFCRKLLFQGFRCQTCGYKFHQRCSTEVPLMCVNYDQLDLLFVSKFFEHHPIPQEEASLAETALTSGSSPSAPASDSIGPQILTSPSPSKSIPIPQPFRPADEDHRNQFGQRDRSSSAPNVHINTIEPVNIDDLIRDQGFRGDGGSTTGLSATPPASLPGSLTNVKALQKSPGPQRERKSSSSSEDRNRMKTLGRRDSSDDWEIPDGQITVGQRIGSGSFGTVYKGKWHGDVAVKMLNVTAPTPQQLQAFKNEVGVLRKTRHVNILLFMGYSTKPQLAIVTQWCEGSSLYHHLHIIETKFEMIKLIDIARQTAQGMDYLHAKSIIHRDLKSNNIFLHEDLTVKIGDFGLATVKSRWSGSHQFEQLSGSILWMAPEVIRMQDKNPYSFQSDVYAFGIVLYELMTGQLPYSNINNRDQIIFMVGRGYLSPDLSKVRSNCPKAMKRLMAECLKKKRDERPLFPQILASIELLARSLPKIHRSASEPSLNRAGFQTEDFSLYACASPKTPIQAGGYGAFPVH

[6] = target: T5, B-Raf V600E (Homo sapiens, UniProt P15056, V600E); experiment: AlphaScreen kinase assay, B-Raf V600E; conditions: read-out: IC50, activity toward kinase B-Raf V600E
T5 construct: P4254. pFastBacBD-CDC37 BRAF D437-K722-X, V600E; His6 with pFastBac HT leader (TEV site) (N); made in house; host or cells: Sf9 (baculovirus; chaperone CDC37 co-expressed)

[7] = target: T6, c-Raf-1 (Homo sapiens, UniProt P04049); experiment: AlphaScreen kinase assay, c-Raf-1; conditions: read-out: IC50, activity toward kinase c-Raf-1
T6 construct: purchased Upstate Biotechnology
T6 sequence (P04049 whole entry): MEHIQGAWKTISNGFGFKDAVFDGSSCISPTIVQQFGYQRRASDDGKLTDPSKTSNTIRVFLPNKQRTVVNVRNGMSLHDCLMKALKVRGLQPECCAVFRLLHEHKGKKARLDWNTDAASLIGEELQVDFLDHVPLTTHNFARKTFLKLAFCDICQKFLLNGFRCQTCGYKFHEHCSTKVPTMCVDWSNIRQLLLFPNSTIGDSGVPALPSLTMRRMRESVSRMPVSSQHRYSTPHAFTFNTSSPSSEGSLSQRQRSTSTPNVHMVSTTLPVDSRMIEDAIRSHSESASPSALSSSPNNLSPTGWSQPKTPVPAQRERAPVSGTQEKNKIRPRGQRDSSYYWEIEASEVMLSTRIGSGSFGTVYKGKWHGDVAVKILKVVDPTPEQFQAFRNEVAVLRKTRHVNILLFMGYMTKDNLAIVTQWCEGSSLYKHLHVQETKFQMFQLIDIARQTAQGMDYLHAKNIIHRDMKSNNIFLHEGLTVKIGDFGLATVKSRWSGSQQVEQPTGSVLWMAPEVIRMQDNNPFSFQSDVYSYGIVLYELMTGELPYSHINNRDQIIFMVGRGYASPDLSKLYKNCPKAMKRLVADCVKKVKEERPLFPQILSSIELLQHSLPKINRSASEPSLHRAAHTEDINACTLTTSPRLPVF

[8] = target: T7, FGFR1 (Homo sapiens, UniProt P11362, C488A/C584S); experiment: AlphaScreen kinase assay, FGFR1; conditions: read-out: IC50, activity toward kinase FGFR
T7 construct: P1351.pET N6 BI-PTP FGFR A458-E765-X C488A, C584S; made in house; host or cells: E. coli (PTP1B co-expressed)

[9] = target: T8, Jnk1 (Homo sapiens, UniProt P45983); experiment: AlphaScreen kinase assay, Jnk1; conditions: read-out: IC50, activity toward kinase Jnk1
T8 construct: purchased Upstate Biotechnology

[10] = target: T9, Pyk2 (Homo sapiens, UniProt Q14289); experiment: AlphaScreen kinase assay, Pyk2; conditions: read-out: IC50, activity toward kinase Pyk2
T9 construct: purchased Upstate Biotechnology
T9 sequence (Q14289 whole entry): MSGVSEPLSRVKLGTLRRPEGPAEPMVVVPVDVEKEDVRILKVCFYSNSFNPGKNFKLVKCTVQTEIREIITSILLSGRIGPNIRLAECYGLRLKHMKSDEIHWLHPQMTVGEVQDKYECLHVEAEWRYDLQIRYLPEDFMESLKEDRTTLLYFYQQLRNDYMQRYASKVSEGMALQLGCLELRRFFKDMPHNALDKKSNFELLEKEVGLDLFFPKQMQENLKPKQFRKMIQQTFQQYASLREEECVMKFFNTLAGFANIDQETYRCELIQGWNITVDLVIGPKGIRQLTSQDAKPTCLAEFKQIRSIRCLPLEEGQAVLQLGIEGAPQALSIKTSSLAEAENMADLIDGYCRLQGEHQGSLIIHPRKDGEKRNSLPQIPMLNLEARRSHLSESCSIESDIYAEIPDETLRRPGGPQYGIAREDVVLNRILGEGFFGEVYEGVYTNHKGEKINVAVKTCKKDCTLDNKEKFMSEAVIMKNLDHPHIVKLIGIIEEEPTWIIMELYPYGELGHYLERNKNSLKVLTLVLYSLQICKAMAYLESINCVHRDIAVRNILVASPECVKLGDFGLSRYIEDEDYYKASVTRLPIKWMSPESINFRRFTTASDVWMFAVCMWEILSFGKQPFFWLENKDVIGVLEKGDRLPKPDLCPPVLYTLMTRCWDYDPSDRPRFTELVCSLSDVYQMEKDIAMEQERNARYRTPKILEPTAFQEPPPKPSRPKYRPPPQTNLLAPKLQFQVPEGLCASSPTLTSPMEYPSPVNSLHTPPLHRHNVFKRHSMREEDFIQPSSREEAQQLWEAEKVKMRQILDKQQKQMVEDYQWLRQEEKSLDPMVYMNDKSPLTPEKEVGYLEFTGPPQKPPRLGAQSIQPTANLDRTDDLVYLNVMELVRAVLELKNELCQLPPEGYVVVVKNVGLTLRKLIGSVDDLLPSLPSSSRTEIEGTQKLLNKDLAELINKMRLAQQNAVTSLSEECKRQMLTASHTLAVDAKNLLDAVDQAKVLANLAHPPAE

[11] = target: T10, Ret (Homo sapiens, UniProt P07949); experiment: AlphaScreen kinase assay, Ret; conditions: read-out: IC50, activity toward kinase Ret
T10 construct: P1378.pET-SF BI-PTP RET H661-R1012 HIS; made in house
T10 sequence (P07949 with tags, fused parts or gaps): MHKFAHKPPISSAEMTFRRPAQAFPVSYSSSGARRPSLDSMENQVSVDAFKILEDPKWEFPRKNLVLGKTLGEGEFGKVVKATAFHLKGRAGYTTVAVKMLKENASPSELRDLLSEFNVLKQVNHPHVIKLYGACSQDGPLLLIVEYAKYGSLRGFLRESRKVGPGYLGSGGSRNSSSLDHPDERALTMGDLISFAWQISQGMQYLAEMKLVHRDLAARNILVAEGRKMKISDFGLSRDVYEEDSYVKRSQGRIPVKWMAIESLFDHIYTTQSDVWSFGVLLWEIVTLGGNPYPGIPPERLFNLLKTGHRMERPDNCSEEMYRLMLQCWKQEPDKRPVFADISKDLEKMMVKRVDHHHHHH

[12] = target: MAP4K4 (Homo sapiens, UniProt O95819); experiment: AlphaScreen kinase assay, MAP4K4; conditions: read-out: IC50, activity toward kinase MAP4K4
Chain of MAP4K4 (O95819 whole entry): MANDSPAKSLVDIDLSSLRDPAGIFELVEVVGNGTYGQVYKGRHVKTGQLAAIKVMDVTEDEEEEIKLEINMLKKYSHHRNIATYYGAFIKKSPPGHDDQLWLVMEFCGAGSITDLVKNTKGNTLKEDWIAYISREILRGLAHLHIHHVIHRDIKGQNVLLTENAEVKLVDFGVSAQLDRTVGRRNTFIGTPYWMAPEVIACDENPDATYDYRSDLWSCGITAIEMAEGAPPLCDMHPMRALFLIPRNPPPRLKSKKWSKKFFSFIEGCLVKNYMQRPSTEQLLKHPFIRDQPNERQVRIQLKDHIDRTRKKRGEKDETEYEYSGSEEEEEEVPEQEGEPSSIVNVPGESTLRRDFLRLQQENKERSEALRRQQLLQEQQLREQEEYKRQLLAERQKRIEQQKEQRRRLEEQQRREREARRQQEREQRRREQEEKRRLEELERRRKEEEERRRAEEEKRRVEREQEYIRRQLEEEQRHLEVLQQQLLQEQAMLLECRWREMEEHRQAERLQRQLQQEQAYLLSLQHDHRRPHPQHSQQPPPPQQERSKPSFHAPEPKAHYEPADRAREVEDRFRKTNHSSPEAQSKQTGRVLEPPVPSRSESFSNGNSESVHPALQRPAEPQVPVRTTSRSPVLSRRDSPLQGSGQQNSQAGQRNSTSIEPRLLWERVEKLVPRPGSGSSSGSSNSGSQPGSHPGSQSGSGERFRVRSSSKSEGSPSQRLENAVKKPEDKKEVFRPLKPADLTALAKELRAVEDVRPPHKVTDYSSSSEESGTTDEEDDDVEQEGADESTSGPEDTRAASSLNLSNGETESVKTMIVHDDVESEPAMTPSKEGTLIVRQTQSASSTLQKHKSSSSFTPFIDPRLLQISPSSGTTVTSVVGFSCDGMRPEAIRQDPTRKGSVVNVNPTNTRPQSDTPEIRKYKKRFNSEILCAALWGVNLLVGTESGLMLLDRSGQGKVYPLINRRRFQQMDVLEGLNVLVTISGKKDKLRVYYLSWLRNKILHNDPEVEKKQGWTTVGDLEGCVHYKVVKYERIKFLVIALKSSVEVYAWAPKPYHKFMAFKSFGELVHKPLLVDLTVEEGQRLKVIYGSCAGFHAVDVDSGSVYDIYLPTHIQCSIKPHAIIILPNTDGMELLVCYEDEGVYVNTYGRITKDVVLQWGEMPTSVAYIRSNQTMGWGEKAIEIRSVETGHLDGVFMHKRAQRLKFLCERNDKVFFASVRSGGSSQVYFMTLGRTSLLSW

[13] = target: T11, Btk (Homo sapiens, UniProt Q06187); experiment: Z'-Lyte FRET kinase assay (Invitrogen), Btk; conditions: read-out: IC50, activity toward kinase Btk
T11 construct: purchased Invitrogen (assay run by Invitrogen)

[14] = target: T12, Fms (Homo sapiens, UniProt P07333); experiment: AlphaScreen kinase assay, Fms; conditions: read-out: IC50, activity toward kinase Fms
T12 construct: purchased Upstate Biotechnology

[15] = target: T13, Jnk3 (Homo sapiens, UniProt P53779); experiment: AlphaScreen kinase assay, Jnk3; conditions: read-out: IC50, activity toward kinase Jnk3
T13 construct: purchased Upstate Biotechnology
T13 sequence (P53779 whole entry): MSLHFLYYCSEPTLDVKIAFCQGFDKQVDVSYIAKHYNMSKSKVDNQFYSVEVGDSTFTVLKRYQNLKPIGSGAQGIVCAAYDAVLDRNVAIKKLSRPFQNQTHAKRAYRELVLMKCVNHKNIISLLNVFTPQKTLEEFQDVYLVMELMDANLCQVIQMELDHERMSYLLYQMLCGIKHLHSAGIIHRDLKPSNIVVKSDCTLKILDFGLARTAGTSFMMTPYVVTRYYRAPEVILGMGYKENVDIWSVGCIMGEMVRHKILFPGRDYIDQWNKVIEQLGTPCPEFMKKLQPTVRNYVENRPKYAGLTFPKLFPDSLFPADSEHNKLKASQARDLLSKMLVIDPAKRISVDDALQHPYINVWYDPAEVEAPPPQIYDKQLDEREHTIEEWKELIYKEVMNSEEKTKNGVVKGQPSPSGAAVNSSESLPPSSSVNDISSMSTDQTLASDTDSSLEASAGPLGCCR

[16] = target: T14, Kit (Homo sapiens, UniProt P10721); experiment: AlphaScreen kinase assay, Kit; conditions: read-out: IC50, activity toward kinase Kit
T14 construct: P1332.N6 BI PTP KIT M552-K948-X COD; His6 (N); made in house; host or cells: E. coli (PTP1B co-expressed)
T14 sequence (P10721 with tags, fused parts or gaps): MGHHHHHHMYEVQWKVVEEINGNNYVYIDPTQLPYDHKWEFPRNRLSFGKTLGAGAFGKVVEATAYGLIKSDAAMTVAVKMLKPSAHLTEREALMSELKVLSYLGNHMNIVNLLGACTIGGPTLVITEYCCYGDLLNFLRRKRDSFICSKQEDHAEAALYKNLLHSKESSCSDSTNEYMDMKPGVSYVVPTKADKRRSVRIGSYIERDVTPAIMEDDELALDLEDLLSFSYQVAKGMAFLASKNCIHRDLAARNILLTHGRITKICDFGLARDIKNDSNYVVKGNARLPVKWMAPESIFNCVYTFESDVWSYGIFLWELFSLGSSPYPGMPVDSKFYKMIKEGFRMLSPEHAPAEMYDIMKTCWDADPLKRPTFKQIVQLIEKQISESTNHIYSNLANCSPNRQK

[17] = target: T15, Met (Homo sapiens, UniProt P08581); experiment: AlphaScreen kinase assay, Met; conditions: read-out: IC50, activity toward kinase Met
T15 construct: P1818.pETN6 BI-PTP MET G1056-G1364-X WT; His6 (N); made in house; host or cells: E. coli (PTP1B co-expressed)
Outline: as §1

[18] = target: T16, Src (Homo sapiens, UniProt P12931); experiment: AlphaScreen kinase assay, Src; conditions: read-out: IC50, activity toward kinase Src
T16 construct: P1144. pET-N6 BI-PTP SRC V86-L536-X; made in house

[19] = target: T17, Fak (Homo sapiens, UniProt Q05397); experiment: AlphaScreen kinase assay, Fak; conditions: read-out: IC50, activity toward kinase Fak
T17 construct: P1358.pFastBacHtb FAK S411-Q686-X; His6 with pFastBacHTb leader (TEV site) (N); made in house; host or cells: Sf9 (baculovirus)

[20] = target: T18, Flt1 (Homo sapiens, UniProt P17948); experiment: AlphaScreen kinase assay, Flt1; conditions: read-out: IC50, activity toward kinase Flt1
T18 construct: P1826.pETN6 BI-PTP FLT1 M799-D1165-X WT; His6 (N); made in house; host or cells: E. coli (PTP1B co-expressed)
T18 sequence (P17948 with tags, fused parts or gaps): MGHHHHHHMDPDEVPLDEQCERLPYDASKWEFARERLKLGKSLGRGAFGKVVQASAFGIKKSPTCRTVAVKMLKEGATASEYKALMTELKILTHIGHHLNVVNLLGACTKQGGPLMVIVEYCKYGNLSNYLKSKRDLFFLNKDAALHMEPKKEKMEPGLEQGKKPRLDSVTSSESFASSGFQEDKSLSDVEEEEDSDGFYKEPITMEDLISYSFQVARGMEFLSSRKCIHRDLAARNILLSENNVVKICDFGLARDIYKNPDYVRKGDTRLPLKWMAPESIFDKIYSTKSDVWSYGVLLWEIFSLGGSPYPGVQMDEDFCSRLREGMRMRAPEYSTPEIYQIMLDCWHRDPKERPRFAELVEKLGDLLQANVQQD

SMILES	IC50 [1]	IC50 [2]	IC50 [3]	IC50 [4]	IC50 [5]	IC50 [6]	IC50 [7]	IC50 [8]	IC50 [9]	IC50 [10]	IC50 [11]	IC50 [12]	IC50 [13]	IC50 [14]	IC50 [15]	IC50 [16]	IC50 [17]	IC50 [18]	IC50 [19]	IC50 [20]
O=C(c1c(F)ccc(NS(=O)(=O)c2ccccc2)c1F)c1c[nH]c2ncccc12 [Compound P-0913, N-[2,4-Difluoro-3-(1H-pyrrolo[2,3-b]pyridine-3-carbonyl)-phenyl]-benzenesulfonamide]	–	–	–	≤ 10 µM	≤ 10 µM	≤ 10 µM	≤ 10 µM	≤ 10 µM	–	–	–	≤ 10 µM	–	≤ 10 µM	–	≤ 10 µM	–	–	–	–
CC(=O)Nc1ccc(F)c(C(=O)c2c[nH]c3ncc(-c4cccnc4)cc23)c1F [Compound P-1002, N-[2,4-Difluoro-3-(5-pyridin-3-yl-1H-pyrrolo[2,3-b]pyridine-3-carbonyl)-phenyl]-acetamide]	–	–	–	≤ 10 µM	–	≤ 10 µM	≤ 10 µM	≤ 10 µM	≤ 10 µM	≤ 10 µM	–	–	–	≤ 10 µM	≤ 10 µM	≤ 10 µM	–	–	≤ 10 µM	≤ 10 µM
CCCS(=O)(=O)Nc1ccc(F)c(C(=O)c2c[nH]c3ncc(OCC)cc23)c1F [Compound P-1252, Propane-1-sulfonic acid [3-(5-ethoxy-1H-pyrrolo[2,3-b]pyridine-3-carbonyl)-2,4-difluoro-phenyl]-amide]	–	–	–	≤ 10 µM	≤ 10 µM	≤ 10 µM	–	≤ 10 µM	–	–	–	≤ 10 µM	–	≤ 10 µM	–	≤ 10 µM	–	≤ 10 µM	–	–
CN(C)c1cccc(Nc2ccc3cc[nH]c3n2)c1 [Compound P-1372, N,N-Dimethyl-N′-(1H-pyrrolo[2,3-b]pyridin-6-yl)-benzene-1,3-diamine]	–	–	–	≤ 10 µM	–	–	–	–	–	≤ 10 µM	–	≤ 10 µM	–	≤ 10 µM	≤ 10 µM	≤ 10 µM	–	–	–	≤ 10 µM

Next, values leading:

IC50 [1]	IC50 [2]	IC50 [3]	IC50 [4]	IC50 [5]	IC50 [6]	IC50 [7]	IC50 [8]	IC50 [9]	IC50 [10]	IC50 [11]	IC50 [12]	IC50 [13]	IC50 [14]	IC50 [15]	IC50 [16]	IC50 [17]	IC50 [18]	IC50 [19]	IC50 [20]	SMILES
≤ 10 µM	≤ 10 µM	≤ 10 µM	≤ 10 µM	–	–	–	–	–	–	–	–	–	–	–	–	–	–	–	–	S=C(NCc1ccccn1)NCc1c[nH]c2ncccc12 [Compound P-0169]
–	–	–	≤ 10 µM	≤ 10 µM	≤ 10 µM	≤ 10 µM	≤ 10 µM	≤ 10 µM	≤ 10 µM	≤ 10 µM	≤ 10 µM	–	–	–	–	–	–	–	–	CCS(=O)(=O)Nc1ccc(F)c(C(=O)c2c[nH]c3ncc(-c4cccnc4)cc23)c1F [Compound P-0728, N-[2,4-difluoro-3-(5-pyridin-3-yl-1H-pyrrolo[2,3-b]pyridine-3-carbonyl)-phenyl]-ethanesulfonamide]
–	–	–	≤ 10 µM	≤ 10 µM	≤ 10 µM	≤ 10 µM	≤ 10 µM	≤ 10 µM	–	≤ 10 µM	–	≤ 10 µM	≤ 10 µM	≤ 10 µM	≤ 10 µM	≤ 10 µM	≤ 10 µM	–	–	Nc1ccc(F)c(C(=O)c2c[nH]c3ncc(-c4cccnc4)cc23)c1F [Compound P-0763, (3-amino-2,6-difluoro-phenyl)-(5-pyridin-3-yl-1H-pyrrolo[2,3-b]pyridin-3-yl)-methanone]
–	–	–	≤ 10 µM	≤ 10 µM	≤ 10 µM	≤ 10 µM	≤ 10 µM	–	–	–	≤ 10 µM	–	–	–	–	–	–	–	–	O=C(c1c(F)ccc(NS(=O)(=O)c2ccccc2)c1F)c1c[nH]c2ncc(F)cc12 [Compound P-0902, N-[2,4-Difluoro-3-(5-fluoro-1H-pyrrolo[2,3-b]pyridine-3-carbonyl)-phenyl]-benzenesulfonamide]
